Measured values as given in US6599925B2 (Wyeth, priority 2001, dated 2003).
Counter-ions that a name gives are not always drawn.

Tests used:
human PAI-1 = human PAI-1 (Homo sapiens, UniProt P05121); experiment: Assay for determining IC50 of inhibition of PAI-1 (Antibody Assay); assay type: binding; details: footnote a: determined by the Antibody Assay; active PAI-1 bound to tPA-coated plate, pH 7.5
Protocol: Assay for Determining IC50 of Inhibition of PAI-1
This assay is based upon the non-SDS dissociable interaction between tPA and active PAI-1. Assay plates are initially coated with human tPA (10 μg/ml). Test compounds are dissolved in DMSO at 10 mM, then diluted with physiologic buffer (pH 7.5) to a final concentration of 1-50 μM. The test compounds are incubated with human PAI-1 (50 ng/ml) for 15 minutes at room temperature. The tPA-coated plate is washed with a solution of 0.05% Tween 20 and 0.1% BSA, then the plate is blocked with a solution of 3% BSA. An aliquot of the test compound/PAI-1 solution is then added to the tPA-coated plate, incubated at room temperature for 1 hour, and washed. Active PAI-1 bound to the plate is assessed by adding an aliquot of a 1:1000 dilution of the 33B8 monoclonal antibody against human PAI-1, and incubating the plate at room temperature for 1 hour (Molecular Innovations, Royal Oak, Mich.). The plate is again washed, and a solution of goat anti-mouse IgG-alkaline phosphatase conjugate is added at a 1:50,000 dilution in goat serum. The plate is incubated 30 minutes at room temperature, washed, and a solution of alkaline phosphatase substrate is added. The plate is incubated 45 minutes at room temperature, and color development is determined at OD405nm. The quantitation of active PAI-1 bound to tPA at varying concentrations of the test compound is used to determine the IC50. Results are analyzed using a logarithmic best-fit equation. The assay sensitivity is 5 ng/ml of human PAI-1 as determined from a standard curve ranging from 0-100 ng/ml.

[1] = biological target: T1, recombinant human plasminogen activator inhibitor-1 (PAI-1) (Homo sapiens, UniProt P05121); experiment: Primary Screen for the PAI-1 Inhibition (chromogenic tPA assay); assay type: biochemical; details: for IC50: footnote b: determined by a modification of the Primary Screen for PAI-1 Inhibition; for inhibition at 25 µM: 25 μM test compound
T1 construct: purchased Molecular Innovations, Royal Oak, Mich
T1 sequence (P05121 24-402): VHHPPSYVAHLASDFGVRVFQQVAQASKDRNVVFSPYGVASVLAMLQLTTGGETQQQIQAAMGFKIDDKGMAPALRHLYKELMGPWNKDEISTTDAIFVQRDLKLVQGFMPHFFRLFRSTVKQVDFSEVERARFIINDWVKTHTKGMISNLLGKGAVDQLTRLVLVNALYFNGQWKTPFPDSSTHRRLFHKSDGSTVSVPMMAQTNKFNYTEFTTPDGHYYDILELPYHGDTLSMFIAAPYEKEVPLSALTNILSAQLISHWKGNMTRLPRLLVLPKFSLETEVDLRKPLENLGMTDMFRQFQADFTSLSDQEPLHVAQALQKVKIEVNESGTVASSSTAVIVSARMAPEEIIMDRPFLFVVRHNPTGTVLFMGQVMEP
Protocol: Primary Screen for the PAI-1 Inhibition
Test compounds are dissolved in DMSO at a final concentration of 10 mM, then diluted 100×in physiologic buffer. The inhibitory assay is initiated by the addition of the test compound (1-100 μM final concentration, maximum DMSO concentration of 0.2%) in a pH 6.6 buffer containing 140 nM recombinant human plasminogen activator inhibitor-1 (PAI-1; Molecular Innovations, Royal Oak, Mich.). Following a 1 hour incubation at room temperature, 70 nM of recombinant human tissue plasminogen activator (tPA) is added, and the combination of the test compound, PAI-1 and tPA is incubated for an additional 30 minutes. Following the second incubation, Spectrozyme-tPA (American Diagnostica, Greenwich, Conn.), a chromogenic substrate for tPA, is added and absorbance read at 405 nm at 0 and 60 minutes. Relative PAI-1 inhibition is equal to the residual tPA activity in the presence of the test compounds and PAI-1. Control treatments include the complete inhibition of tPA by PAI-1 at the molar ratio employed (2:1), and the absence of any effect of the test compound on tPA alone.

human PAI-1, sequence (P05121 24-402): as above

Structure (SMILES)	melting point	IC50 (human PAI-1) [µM]	IC50 [1] [µM]	inhibition at 25 µM [1] [%]
CCCCC(=O)c1c(-c2ccc3c(Cl)c(OCC(=O)O)ccc3c2)oc2ccccc12 [Example 24, 2-{[1-Chloro-6-(3-pentanoyl-1-benzofuran-2-yl)-2-naphthyl]oxy}acetic acid]	142 to 143 °C	11		
O=C(O)COc1ccc2cc(-c3oc4ccccc4c3C(=O)CC3CCCC3)ccc2c1 [Example 10, 2-({6-[3-(2-Cyclopentylacetyl)-1-benzofuran-2-yl]-2-naphthyl}oxy)acetic acid]	177 to 178 °C			
CCCCC(=O)c1c(-c2ccc3c(C)c(OC(Cc4ccccc4)C(=O)[O-])ccc3c2)oc2ccccc12.[Na+] (stereo not drawn) [Example 23, 2-{[1-Methyl-6-(3-pentanoyl-1-benzofuran-2-yl)-2-naphthyl]oxy}-3-phenylpropanoic acid, sodium salt]	221 to 222 °C	12.4		
CCCCC(=O)c1c(-c2ccc3cc(OC(Cc4ccccc4)C(=O)O)ccc3c2)oc2ccccc12 (stereo not drawn) [Example 4, 2-{[6-(3-Pentanoyl-1-benzofuran-2-yl)-2-naphthyl]oxy}-3-phenylpropanoic acid]	144 to 145 °C	16.6		
CCCCC(=O)c1c(-c2ccc3c(C)c(OCc4nnn[nH]4)ccc3c2)oc2ccccc12 [Example 20, 1-{2-[5-Methyl-6-(1H-1,2,3,4-tetraazol-5-ylmethoxy)-2-naphthyl]-1-benzofuran-3-yl}-1-pentanone]	162 to 164 °C	24.2		
CCCCC(=O)c1c(-c2ccc3c(Br)c(OCc4nnn[nH]4)ccc3c2)oc2ccccc12 [Example 1, 1-{2-[5-Bromo-6-(1H-1,2,3,4-tetraazol-5-ylmethoxy)-2-naphthyl]-1-benzofuran-3-yl}-1-pentanone]			7.7	
CCCCC(=O)c1c(-c2ccc3cc(OCc4nnn[nH]4)ccc3c2)oc2ccc(Cl)cc12 [Example 32, 1-{5-Chloro-2-[6-(1H-tetrazol-5-ylmethoxy)-naphthalen-2-yl]-benzofuran-3-yl}-pentan-1-one]	178 to 180 °C			39
CCCCC(=O)c1c(-c2ccc3c(Br)c(OCC(=O)O)ccc3c2)oc2ccc(Cl)cc12 [Example 31, [1-Bromo-6-(5-chloro-3-pentanoyl-benzofuran-2-yl)-naphthalen-2-yloxy]-acetic acid]	130 to 132 °C		17.1	
CCCCCc1c(-c2ccc3c(C)c(OCc4nnn[nH]4)ccc3c2)oc2ccccc12 [Example 21, 5-({[1-Methyl-6-(3-pentyl-1-benzofuran-2-yl)-2-naphthyl]oxy}methyl)-1H-1,2,3,4-tetraazole]	169 to 171 °C (dec.)			31
O=C(O)COc1ccc2cc(-c3oc4ccccc4c3C(=O)c3ccccc3)ccc2c1 [Example 26, {[6-(3-benzoyl-1-benzofuran-2-yl)-2-naphthyl]oxy}acetic acid]	178 to 181 °C			49
CCCCC(=O)c1c(-c2ccc3c(-c4ccc(C(F)(F)F)cc4)c(OCC(=O)O)ccc3c2)oc2ccccc12 [Example 15, 2-({6-(3-Pentanoyl-1-benzofuran-2-yl)-1-[4-(trifluoromethyl)phenyl]-2-naphthyl}oxy) acetic acid, sodium salt]		8.2		
CCCCCc1c(-c2ccc3c(Br)c(OCc4nn[nH]n4)ccc3c2)oc2ccccc12 [Example 37]			4.59	
O=C(c1ccccc1)c1c(-c2ccc3c(Br)c(OCc4nnn[nH]4)ccc3c2)oc2ccccc12 [Example 27, {2-[5-Bromo-6-(1H-tetraazol-5-ylmethoxy)-2-naphthyl]-1-benzofuran-3-yl}(phenyl) methanone]	> 183 °C (dec.)			35
CCCCC(=O)c1c(-c2ccc3cc(OCc4nnn[nH]4)ccc3c2)oc2ccccc12 [Example 3, 1-{2-[6-(1H-1,2,3,4-Tetraazol-5-ylmethoxy)-2-naphthyl]-1-benzofuran-3-yl}-1-pentanone]	150 to 151 °C		12.7	
CCCCC(=O)c1c(-c2ccc3c(Br)c(OCC(=O)O)ccc3c2)oc2ccccc12 [Example 5, 2-{[1-Bromo-6-(3-pentanoyl-1-benzofuran-2-yl)-2-naphthyl]oxy}acetic acid]	146 to 147 °C			47
Brc1c(OCc2nnn[nH]2)ccc2cc(-c3oc4ccccc4c3CCC3CCCC3)ccc12 [Example 12, 5-[({1-Bromo-6-[3-(2-cyclopentylethyl)-1-benzofuran-2-yl]-2-naphthyl}oxy)methyl]-1H-1,2,3,4-tetraazole]	192 to 194 °C			
CC(C)CC(=O)c1c(-c2ccc3cc(OCC(=O)O)cc(Br)c3c2)oc2ccccc12 [Example 7]	140 to 142 °C			
CCCCC(=O)c1c(-c2ccc3c(Br)c(OC(Cc4ccccc4)C(=O)O)ccc3c2)oc2ccccc12 (stereo not drawn) [Example 19, 2-{[1-Bromo-6-(3-pentanoyl-1-benzofuran-2-yl)-2-naphthyl]oxy}-3-phenylpropanoic acid]	115 to 117 °C		6.2	
CCCCCc1c(-c2ccc3cc(OCC(=O)O)ccc3c2)oc2ccccc12 [Example 35, [6-(3-Pentyl-benzofuran-2-yl)-naphthalen-2-yloxy]-acetic acid]	163 to 165 °C		4.39	
O=C(O)COc1ccc2cc(-c3oc4ccccc4c3CCC3CCCC3)ccc2c1Br [Example 11, 2-({1-Bromo-6-[3-(2-cyclopentylethyl)-1-benzofuran-2-yl]-2-naphthyl}oxy)acetic acid]	155 to 156 °C			24
CC(C)CC(=O)c1c(-c2ccc3c(Br)c(OCC(=O)O)ccc3c2)oc2ccccc12 [Example 7]			14.7	
CC(C)(C)CC(=O)c1c(-c2ccc3c(Br)c(OCC(=O)O)ccc3c2)oc2ccccc12 [Example 8, 2-({1-Bromo-6-[3-(3,3-dimethylbutanoyl)-1-benzofuran-2-yl]-2-naphthyl}oxy)acetic acid]	151 to 153 °C		11.9	
O=C(O)C(Cc1ccccc1)Oc1ccc2cc(-c3oc4ccccc4c3Br)ccc2c1Br (stereo not drawn) [Example 28, 2-{[1-Bromo-6-(3-bromo-1-benzofuran-2-yl)-2-naphthyl]oxy}-3-phenylpropanoic acid]	206 to 209 °C			56
CCCCC(=O)c1c(-c2ccc3c(-c4ccc(C(F)(F)F)cc4)c(OCc4nnn[nH]4)ccc3c2)oc2ccccc12 [Example 18, 1-(2-{6-(1H-1,2,3,4-Tetraazol-5-ylmethoxy)-5-[4-(trifluoromethyl)phenyl]-2-naphthyl}-1-benzofuran-3-yl)-1-pentanone]	189 to 191 °C		6	
CCCCC(=O)c1c(-c2ccc3c(Br)c(OCc4nnn[nH]4)ccc3c2)oc2ccc(Cl)cc12 [Example 30, 1-{2-[5-Bromo-6-(1H-tetrazol-5-ylmethoxy)-naphthalen-2-yl]-5-chloro-benzofuran-3-yl}-pentan-1-one]	133 to 135 °C			46
CCCCC(=O)c1c(-c2ccc3c(-c4ccc(C(F)(F)F)cc4)c(OCC(=O)O)ccc3c2)oc2ccccc12 (as salt: sodium) [Example 15, 2-({6-(3-Pentanoyl-1-benzofuran-2-yl)-1-[4-(trifluoromethyl)phenyl]-2-naphthyl}oxy) acetic acid, sodium salt]	274 to 275 °C (dec.)			
CCCCC(=O)c1c(-c2ccc3cc(OCC(=O)O)ccc3c2)oc2ccc(Cl)cc12 [Example 33, [6-(5-Chloro-3-pentanoyl-benzofuran-2-yl)-naphthalen-2-yloxy]-acetic acid]	158 to 160 °C		10.4	
CCCCC(=O)c1c(-c2ccc3cc(OCC(=O)O)ccc3c2)oc2ccccc12 [Example 2, 2-{[6-(3-pentanoyl-1-benzofuran-2-yl)-2-naphthyl]oxy}acetic acid]	130 to 132 °C			43
